Where two headings read alike, the source gives them in different places.
Experiments:
[1] = molecular target: human wild type STING (WT STING) (Homo sapiens, UniProt Q86WV6, H232R); test: 293T WT STING standard reporter assay; format: cell-based; conditions: 293T WT STING EC50, 293T wtSTING-FL cells; standard reporter assay without digitonin; 7 hours; ISRE firefly luciferase
[2] = tested on: peripheral blood mononuclear cell (PBMC); test: Peripheral blood mononuclear cell assay; conditions: compounds 1h, washed, 15 hour incubation, average of one to four donors
Experimental: Selected compounds were tested in an in vitro peripheral blood mononuclear cell (PBMC) assay. […] Serially diluted tested compounds were added to wells in 50 μl of cultivation medium and cells were incubated with the compounds for 1h at 37° C. with 5% CO2. Plates with cells were then spun 500 g for 5 minutes and the medium was removed. Cells were washed twice with the cell culture medium by the use of centrifugation and gently resuspended in 100 μl medium without compounds. After 15 hour incubation at 37° C. with 5% CO2, the cell culture medium was collected and the levels of interferon-alpha (INF-α), interferon-gamma (INF-γ) and tumor necrosis factor-alpha (TNF-α) were determined with ProcartaPlex Assays (ThermoFisher, Waltham, USA) and MAGPIX System (Merck KGaA, Darmstadt, Germany). […] Values reported are an average of runs from one to four donors.

[3] = read-out: PBMC EC50 IFN-α, interferon-alpha level in medium
[4] = read-out: PBMC EC50 IFN-γ, interferon-gamma level in medium
[5] = read-out: PBMC EC50 TNF-α, tumor necrosis factor-alpha level in medium

human wild type STING (WT STING), sequence (Q86WV6 whole entry H232R): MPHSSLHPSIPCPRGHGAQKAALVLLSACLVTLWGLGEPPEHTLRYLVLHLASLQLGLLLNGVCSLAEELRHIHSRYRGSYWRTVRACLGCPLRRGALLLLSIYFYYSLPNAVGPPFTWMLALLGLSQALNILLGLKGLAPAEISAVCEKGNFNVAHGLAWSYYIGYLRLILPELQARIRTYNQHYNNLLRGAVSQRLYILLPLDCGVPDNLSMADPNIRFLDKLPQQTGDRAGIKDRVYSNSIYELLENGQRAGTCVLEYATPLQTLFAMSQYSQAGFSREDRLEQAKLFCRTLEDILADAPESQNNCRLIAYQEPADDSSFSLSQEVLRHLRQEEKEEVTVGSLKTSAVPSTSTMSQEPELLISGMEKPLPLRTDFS

SMILES	EC50 [1] [nM]	EC50 [2, 3] [nM]	EC50 [2, 4] [nM]	EC50 [2, 5] [nM]
CCCCCCCCCCCC(=O)Oc1ccc(CSP2(=O)CO[C@H]3[C@@H](F)[C@H](n4cnc5c(N)ncnc54)O[C@@H]3COP(=O)(O)O[C@@H]3[C@H](F)[C@@H](CO2)O[C@H]3n2cnc3c(=O)[nH]c(N)nc32)cc1 (single isomer, unassigned) [Compound 47b]	90			
CCCCCCCCCCCC(=O)Oc1ccc(CSP2(=O)CO[C@H]3[C@@H](F)[C@H](n4cnc5c(N)ncnc54)O[C@@H]3COP(=O)(O)O[C@@H]3[C@H](F)[C@@H](CO2)O[C@H]3n2cnc3c(=O)[nH]c(N)nc32)cc1 (single isomer, unassigned) [Compound 47a]	50			
CCCCCCCCCCCC(=O)OCSP1(=O)CO[C@H]2[C@@H](F)[C@H](n3cnc4c(N)ncnc43)O[C@@H]2COP(=O)(O)O[C@@H]2[C@H](F)[C@@H](CO1)O[C@H]2n1cnc2c(=O)[nH]c(N)nc21 (single isomer, unassigned) [Compound 76a]	300			
CCCCCC(=O)Oc1ccc(C(=O)Oc2ccc(CSP3(=O)CO[C@H]4[C@@H](F)[C@H](n5cnc6c(N)ncnc65)O[C@@H]4COP(=O)(O)O[C@@H]4[C@H](F)[C@@H](CO3)O[C@H]4n3cnc4c(=O)[nH]c(N)nc43)cc2)cc1 (single isomer, unassigned) [Compound 49b]	4500			
CCCCCCCC(=O)OCSP1(=O)CO[C@H]2[C@@H](F)[C@H](n3cnc4c(N)ncnc43)O[C@@H]2COP(=O)(SCOC(=O)CCCCCCC)O[C@@H]2[C@H](F)[C@@H](CO1)O[C@H]2n1cnc2c(=O)[nH]c(N)nc21 (stereo partly drawn) [Compound 69b, {[(1S,6R,8R,9R,10R,16R,18R,19R)-18-(2-amino-6-oxo-6,9-dihydro-1H-purin-9-yl)-8-(6-amino-9H-purin-9-yl)-9,19-difluoro-13-{[(octanoyloxy)methyl]sulfanyl}-3,13-dioxo-2,4,7,11,14,17-hexaoxa-3λ^5,13λ^5-diphosphatricyclo[14.2.1.0^6,10]nonadecan-3-yl]sulfanyl}methyl octanoate]	200			
CC(C)(C)C(=O)OCOc1ccc(CSP2(=O)CO[C@H]3[C@@H](F)[C@H](n4cnc5c(N)ncnc54)O[C@@H]3COP(=O)(O)O[C@@H]3[C@H](F)[C@@H](CO2)O[C@H]3n2cnc3c(=O)[nH]c(N)nc32)cc1 (single isomer, unassigned) [Compound 44a]	1900			
CCCCCC(=O)Oc1ccc(CSP2(=O)CO[C@H]3[C@@H](F)[C@H](n4cnc5c(N)ncnc54)O[C@@H]3COP(=O)(O)O[C@@H]3[C@H](F)[C@@H](CO2)O[C@H]3n2cnc3c(=O)[nH]c(N)nc32)cc1 (single isomer, unassigned) [Compound 42a]	300			
CCCCCC(=O)Oc1ccc(CSP2(=O)CO[C@H]3[C@@H](F)[C@H](n4cnc5c(N)ncnc54)O[C@@H]3COP(=O)(O)O[C@@H]3[C@H](F)[C@@H](CO2)O[C@H]3n2cnc3c(=O)[nH]c(N)nc32)cc1 (single isomer, unassigned) [Compound 42b]	200			
CCCCCCCCCCCCCCCCOC(=O)OCSP1(=O)OC[C@H]2O[C@@H](n3cnc4c(N)ncnc43)[C@H](F)[C@@H]2OCP(=O)(O)OC[C@H]2O[C@@H](n3cnc4c(=O)[nH]cnc43)[C@H](O1)[C@@H]2F (stereo partly drawn) [Compound 73b, {[(1S,6R,8R,9R,10R,16R,18R,19R)-8-(6-amino-9H-purin-9-yl)-9,19-difluoro-13-hydroxy-3,13-dioxo-18-(6-oxo-6,9-dihydro-1H-purin-9-yl)-2,4,7,11,14,17-hexaoxa-3λ^5,13λ^5-diphosphatricyclo[14.2.1.0^6,10]nonadecan-3-yl]sulfanyl}methyl hexadecyl carbonate]		3000	7000	4000
CCCCCC(=O)Oc1ccc(C(=O)Oc2ccc(CSP3(=O)OC[C@H]4O[C@@H](n5cnc6c(N)ncnc65)[C@H](F)[C@@H]4OCP(=O)(O)OC[C@H]4O[C@@H](n5cnc6c(=O)[nH]c(N)nc65)[C@H](O3)[C@@H]4F)cc2)cc1 (single isomer, unassigned) [Compound 40b]		8100	10400	10400
